Measured values taken from the NIST ThermoML archive (doi:10.1021/je900653p).
± gives the expanded uncertainty stated by the source.

Settings: Crystal

Row | Normal melting temperature | SMILES
1 | 1.2 ± 1.2 °C | CC12CCC(CC1)C(C)(C)O2 [1,3,3-trimethyl-2-oxabicyclo[2.2.2]octane]
2 | -68.5 ± 0.8 °C | Cc1ccc(C(C)C)cc1 [1-(1-methylethyl)-4-methylbenzene]
3 | 51.1 ± 0.8 °C | C=C1C2CCC(C2)C1(C)C (centres undefined) [2,2-dimethyl-3-methylenebicyclo[2.2.1]heptane]
4 | -61.5 ± 0.8 °C | C=C1CC[C@H]2C[C@@H]1C2(C)C [(1S,5S)-6,6-dimethyl-2-methylenebicyclo[3.1.1]heptane]
